Like-named read-outs stand apart in the source and are kept apart here.
Tests used:
[1] = tested on: calcium oxalate calculi deposition in fecal excreta of D. melanogaster; test: Drug library screening by D. melanogaster fecal excreta birefringence assay; type: in vivo, Drosophila melanogaster; settings: 20 μM candidate compound in fly media with 0.5% (w/v) sodium oxalate; duplicates
Method: To quantify calcium oxalate calculi via D. melanogaster excreta birefringence assay, approximately 20 newly eclosed flies were added to each of 15 vials containing either of the lithogenic diets or standard food medium as a control. Stone forming diets were prepared according to the method discussed above. A glass coverslip (18×18 mm) was suspended from the cotton tube plug to allow for the collection of fecal matter. Following a 14-day incubation period, the coverslip was extracted from each tube and each coverslip was directly imaged by confocal microscopy under polarized light. Control experiments performed in a similar fashion with standard food media. The percent area of birefringence for each coverslip was individually analyzed and quantified using NIH ImageJ software (Particle Analysis function). […] The percentage area of birefringence was quantified and compared birefringence data from control experiments with separately prepared 0.5% sodium oxalate media with no addition of candidate compounds. […] After 7 days of incubation and ingestion of drug candidates, viability of flies was quantitated and all coverslips containing fecal excreta were analyzed for birefringence signal (FIG. 2d).

[2] = tested on: calcium oxalate stone formation in D. melanogaster; test: Dose response relationship of arbutin and calcium oxalate stone formation (fecal excreta and dissected Malpighian tubules); type: in vivo, Drosophila melanogaster
Method: To quantify calcium oxalate calculi via D. melanogaster excreta birefringence assay, approximately 20 newly eclosed flies were added to each of 15 vials containing either of the lithogenic diets or standard food medium as a control. Stone forming diets were prepared according to the method discussed above. A glass coverslip (18×18 mm) was suspended from the cotton tube plug to allow for the collection of fecal matter. Following a 14-day incubation period, the coverslip was extracted from each tube and each coverslip was directly imaged by confocal microscopy under polarized light. Control experiments performed in a similar fashion with standard food media. The percent area of birefringence for each coverslip was individually analyzed and quantified using NIH ImageJ software (Particle Analysis function). In order to measure dose response relationship of arbutin and calcium oxalate stone formation, thirty milliliters of 0.5% (w/v) sodium oxalate media was prepared with […] arbutin. A 10-fold serial dilution was performed to obtain 15 ml of media per dilution. Each dilution was divided into 3 narrow fly vials to yield triplicates. Approximately 20 newly eclosed flies were added to each vial with a glass coverslip (18×18mm) suspended from the cotton via plug to collect fecal matter. After a 14-day incubation period, each coverslip was extracted and stone burden was quantified as described above to observe the dose-response relationship between arbutin concentration and percentage area of birefringence.

[3] = tested on: calcium oxalate stone burden in D. melanogaster fed patient urine; test: Patient derived urine based calcium oxalate stone induction in D. melanogaster; type: in vivo, Drosophila melanogaster
Method: In addition, effect of arbutin on patient derived urine based calcium oxalate stone induction in D. melanogaster was assessed. Urine samples were collected from recurrent calcium oxalate stone forming patients (n=10 patients) and centrifuged at 2500 rpm. One milliter aliquots of supernatant were prepared and stored at −80° C. for further analysis. Ten milliters of standard medium was prepared and thoroughly mixed with 1mL of patient urine, this was separated into two individual narrow vials (5 mL per vial). Approximately 20 newly eclosed flies were added to each vial. A glass coverslip (18×18 mm) was suspended from the cotton vial plug to collect fecal matter. […] Stone burden on each coverslip was quantified via the aforementioned birefringence assay and results were expressed as mean±standard error of mean (SEM). Percentage stone burden were analyzed using one way analysis of variance (ANOVA), (Prism 6, GraphPad Software, Inc., San Diego, Calif., USA) (FIG. 3e).
D. melanogaster incubated in this patient urine based model generated calculi in the same manner as with fly food supplemented with sodium oxalate. […] Various pH's were evaluated in order to recapitulate the pH in human urine at the kidney and bladder (pH 4-6) with a greater reduction in calculi formation observed at pH 7-8 (FIG. 3f, * denotes p<0.05, two-way ANOVA, Scheffe a correction).

[4] = In vitro patient-urine based analysis of arbutin and calcium oxalate interactions (birefringence); parameters: species or system human; settings: 1 mM arbutin, pH7/37° C., 24 hours
Method: 50 μl of recurrent calcium oxalate stone forming patient urine and healthy urine samples were combined with 45 μl of 20 mM 4-(2-hydroxyethyl)-1-piperazineethanesulfonic acid (HEPES) buffer (pH 7-8). 5 μl of 20 mM arbutin was added to each solution to form a 1 mM final concentration of the drug. Immediately after addition of the drug, 5 μl of each sample was spotted on a glass slide and birefringence data was imaged on confocal microscope. Each sample was incubated at 37° C. for 24 hours. 5 μl of the sample was identically collected and reimaged. The percent area of birefringence was data analysed as described above. This experiment was repeated in sodium acetate/acetic acid buffer at pH of 4 to observe the efficacy of arbutin in acidic environments. Reduction of percentage stone reduction was analysed using one way ANOVA. Control experiments were conducted using Quick Fix plus synthetic urine from Spectrum labs Cincinnati, Ohio, USA.

[5] = tested on: HEK293 cells; test: Cytotoxicity assay (LDH release) of sodium oxalate and arbutin on human kidney epithelial cells; type: cell-based; settings: arbutin 1 mM final with oxalate, 30 min incubation
Method: (§1) To assess the cytotoxity of sodium oxalate and arbutin, human embryonic kidney epithelial cells (HEK293; ATCC® CRL-1573™), were cultured in 6-well plate containing 18 mm diameter glass coverslips to 50% confluence. Following aspiration of culture medium, the cells were incubated in a chloride-free solution containing 130 mM Potassium Gluconate, 5 mM Glucose, and 20 mM HEPES (pH 7.4) and 20 μM sodium oxalate for 30 minutes. The treated media was then removed and stored at 4° C. for further analysis. Cells were washed with Cl-free buffer and stained with 20 μM Cell tracker red CMTPX Dye (ThermoFisher Scientific) for 15 mins. Cells were triple washed with Cl-buffer and coverslips were mounted with ProLong® Gold Antifade Mountant with DAPI (ThermoFisher Scientific) without permeabilizing in preparation for confocal microscopy. Samples were imaged using a Nikon A1R+ confocal microscope (1.2 au) with a 20× dry or 60× oil-immersion lens and presented using NIS Elements software (Nikon).
The cytotoxicity of HEK293 cells in sodium oxalate media with or without arbutin was determined by quantifying […] (LDH) content liberated by damaged cells using Cytotoxicity Detection KitPLUS (LDH) (Roche) following the manufacturers instructions. Absorbance readings were taken at 492 nm using BioTek PowerWave HT Microplate Spectrophotometer.

[6] = tested on: HEK293 cells; test: Cell viability of HEK cells under oxalate conditions with arbutin; type: cell-based, human
Method: FIG. 6a) Confocal fluorescence images of HEK293 cells stained with CellTracker Red to label the cell surface and Hoechst to label the nuclei. HEK293 cells were treated with 20 μM sodium oxalate for 30 mins. Birefringence signal was observed within HEK293 cells (white signal). FIG. 6b) Activity of LDH released from HEK293 cells after 30 min incubation with oxalate in the presence or absence of arbutin. FIG. 6c) Cell viability in arbutin treated HEK293 and PC3MLN4 cells over a 3 day period. Green line represents control normalized to 100% at that same timepoint. *** denotes p<0.05, two way ANOVA; Scheffe a correction.
as §1, with “Following aspiration of culture medium, the cells were incubated in a chloride-free solution containing 130 mM Potassium Gluconate, 5 mM Glucose, and 20 mM HEPES (pH 7.4) and 20 μM sodium oxalate for 30 minutes.” left out

[7] = Preliminary NMR studies of arbutin in acidic conditions; type: physicochemical; settings: low pH, in solution
Description: Arbutin has been described to readily degrade into the split components D-glucose and HQ (and conjugates) in acidic environments, an enteric coated tablet vehicle could potentially be utilised to bypass hydrolysis by stomach acids and improve oral bioavailability.

[8] = cited from earlier work
[9] = rat; cited from earlier work
[10] = mouse; cited from earlier work
[11] = in vitro or in vivo studies; cited from earlier work

OCC1OC(Oc2ccc(O)cc2)C(O)C(O)C1O [arbutin, hydroquinone β-D-glucopyranoside]
anti-lithogenic activity in library screen (calculi deposition in fecal excreta) [1]: consistently exhibited anti-lithogenic activity
calculi content in MTs ([2]; 32 μM and 512 μM arbutin treatment): decreases in calculi content in MTs
arbutin concentration at which calculi content in fecal excreta significantly decreased ([2]; 0.5% (w/v) sodium oxalate media, 14-day incubation): > 64 µM
IC50 ([2]; Drosophila melanogaster, 336 h, 0.5% (w/v) sodium oxalate media, 14-day incubation, read-out: calculated IC50, calculi content deposited in fecal excreta): 40 µM
calculi deposits in dissected MTs compared to controls ([2]; arbutin at 1 mM in fly media+0.05% sodium oxalate, controls fly media+0.5% oxalate±DMSO): near abrogation of calculi deposits
lowest concentration with anti-lithogenic abilities ([2]; fly media supplemented with sodium oxalate (0.5%)): 64 µM
stone burden via fecal excreta assay in comparison with citrate ([3]; 1 mM final concentration in fly media with patient urine, regardless of pH): significant decrease in stone burden
pH with greater reduction in calculi formation ([3]; 1 mM in fly media with patient urine, various pHs): 7-8 pH
difference in birefringence events in control, healthy urine samples [4]: not significant
birefringence events in nephrolithiasis patient urine samples ([4]; n=3): significant reduction in birefringence events
LDH activity compared to arbutin treatment alone [5]: no impact
cell viability compared to arbutin treatment alone ([6]; arbutin 1 mM final with oxalate, HEK cells): no impact
effect on oxalate induced loss of cell viability ([6]; arbutin 1 mM final, HEK cells under 0.1% calcium oxalate conditions): ameliorated this effect
stability in acidic conditions (NMR) [7]: stable
administered arbutin dose retrieved in the urine as HQ conjugates ([8]; human, 4 hrs following an oral dose): approximately 70%
absorption from the GI tract ([8]; oral): heavily absorbed from the GI tract
acute and chronic toxicity by oral dosing [9]: low risk of acute and chronic toxicity
acute and chronic toxicity by oral dosing [10]: low risk of acute and chronic toxicity
genotoxic effects [11]: No genotoxic effects
